Experimental findings from ChEMBL document CHEMBL2440112, “Structure-activity relationships of the aromatic site in novel anticonvulsant pyrrolo[1,2-a]pyrazine derivatives” (Bioorg Med Chem Lett, 2013) are described below.

The structures appear in SMILES notation. The source made the active and inactive calls. No cut-off for these calls is given here.

The ED50 is the dose that gives a 50% effect, or the effect in half of the subjects. The TD50 is the dose at which the toxic effect under study appears in half of the subjects.

The subject of series [1] is Mus musculus. Briefly: Neurotoxicity in albino mouse assessed as minimal motor impairment at 100 mg/kg, ip after 0.25 hrs by rotorod test. In kind it is toxicity, organism-based. As to conditions: in vivo. More on the design: dose 100 mg/kg, route intraperitoneal.
Series [2] relates to Mus musculus. Briefly: Anticonvulsant activity in albino mouse assessed as protection against subcutaneous metrazole-induced seizures at 100 mg/kg, ip after 4 hrs. Format: functional, organism-based. Set-up: dose 100 mg/kg.
In series [3] the test system is Mus musculus. The series is described as follows: Anticonvulsant activity in albino mouse assessed as protection against subcutaneous metrazole-induced seizures at 100 mg/kg, ip after 0.5 hrs. More on the design: dose 100 mg/kg. Format: functional, organism-based.
For series [4], the system named is Mus musculus. The series is described as follows: Neurotoxicity in albino mouse assessed as minimal motor impairment at 100 mg/kg, ip after 4 hrs by rotorod test. In kind it is toxicity, organism-based. Set-up: dose 100 mg/kg, route intraperitoneal. As to conditions: in vivo. Background: The rotarod test checks motor coordination on a turning rod.
Series [5] deals with Mus musculus. The series is described as follows: Neurotoxicity in albino mouse assessed as minimal motor impairment at 100 mg/kg, ip after 0.5 hrs by rotorod test. Set-up: dose 100 mg/kg, route intraperitoneal. In kind it is toxicity, organism-based. As to conditions: in vivo.
The test system of a further series is Rattus norvegicus. Briefly: Anticonvulsant activity in po dosed albino Sprague-Dawley rat assessed as protection against maximal electroshock-induced seizures after […] to 4 hrs. Format: functional, organism-based. (The maximal electroshock test induces tonic seizures with an electrical stimulus.)
Series [6] has as its system Mus musculus. Briefly: Anticonvulsant activity in albino mouse assessed as protection against maximal electroshock-induced seizures at 100 mg/kg, ip after 4 hrs. In kind it is functional, organism-based. More on the design: dose 100 mg/kg.
Series [7] deals with Mus musculus. Briefly: Anticonvulsant activity in albino mouse assessed as protection against maximal electroshock-induced seizures at 100 mg/kg, ip after 1 hr. Set-up: dose 100 mg/kg. Format: functional, organism-based.
Series [8] has as its system Mus musculus. Briefly: Neurotoxicity in albino mouse assessed as minimal motor impairment at 100 mg/kg, ip after 1 hr by rotorod test. More on the design: dose 100 mg/kg, route intraperitoneal. Particulars: in vivo. Format: toxicity, organism-based.
Series [9] has as its system Mus musculus. The series is described as follows: Anticonvulsant activity in albino mouse assessed as protection against maximal electroshock-induced seizures at 100 mg/kg, ip after 0.5 hrs. Format: functional, organism-based. Set-up: dose 100 mg/kg.
Series [10] relates to Mus musculus. The series is described as follows: Anticonvulsant activity in albino mouse assessed as protection against maximal electroshock-induced seizures at 100 mg/kg, ip after 0.25 hrs. Format: functional, organism-based. More on the design: dose 100 mg/kg.
Series [11] deals with Mus musculus. The series is described as follows: Anticonvulsant activity in ip dosed albino mouse assessed as protection against 6 Hz psychomotor seizure by minimal clonic seizure test. In kind it is functional.
Series [12] is filed under the species Mus musculus. Briefly: Protective index, ratio of TD50 for albino mouse minimal clonic seizure model to ED50 for albino mouse assessed as protection against 6 Hz psychomotor seizure. Format: functional.
Series [13] deals with Mus musculus. Briefly: Anticonvulsant activity in albino mouse assessed as protection against 6 Hz psychomotor seizure at 100 mg/kg, ip after 0.25 hrs by minimal clonic seizure test. Format: functional, organism-based. More on the design: dose 100 mg/kg.
For series [14], the system named is Mus musculus. Briefly: Anticonvulsant activity in albino mouse assessed as protection against 6 Hz psychomotor seizure at 100 mg/kg, ip after 1 hr by minimal clonic seizure test. Set-up: dose 100 mg/kg. In kind it is functional, organism-based.
Series [15] deals with Mus musculus. The series is described as follows: Anticonvulsant activity in ip dosed albino mouse assessed as time of peak effect for protection against 6 Hz psychomotor seizure by minimal clonic seizure test. In kind it is functional.
Series [16] deals with Mus musculus. Briefly: Anticonvulsant activity in albino mouse assessed as protection against 6 Hz psychomotor seizure at 100 mg/kg, ip after 4 hrs by minimal clonic seizure test. More on the design: dose 100 mg/kg. Format: functional, organism-based.
Series [17] can be described thus: Neurotoxicity in ip dosed albino mouse minimal clonic seizure model assessed as minimal motor impairment by rotorod test. In kind it is toxicity, organism-based. As to conditions: in vivo.
Series [18] relates to Mus musculus. The series is described as follows: Anticonvulsant activity in albino mouse assessed as protection against 6 Hz psychomotor seizure at 100 mg/kg, ip after 2 hrs by minimal clonic seizure test. More on the design: dose 100 mg/kg. In kind it is functional, organism-based.
The subject of series [19] is Mus musculus. The series is described as follows: Anticonvulsant activity in albino mouse assessed as protection against 6 Hz psychomotor seizure at 100 mg/kg, ip after 0.5 hrs by minimal clonic seizure test. Format: functional, organism-based. More on the design: dose 100 mg/kg.
Series [20] relates to Mus musculus. The series is described as follows: Anticonvulsant activity in albino mouse assessed as protection against subcutaneous metrazole-induced seizures at 100 mg/kg, ip after 1 hr. Format: functional, organism-based. Set-up: dose 100 mg/kg.
The test system of series [21] is Mus musculus. The series is described as follows: Anticonvulsant activity in albino mouse assessed as protection against subcutaneous metrazole-induced seizures at 100 mg/kg, ip after 0.25 hrs. In kind it is functional, organism-based. Set-up: dose 100 mg/kg.
Series [22] deals with Mus musculus. Briefly: Neurotoxicity in albino mouse minimal clonic seizure model assessed as minimal motor impairment at 100 mg/kg, ip after 0.25 hrs by rotorod test. Set-up: dose 100 mg/kg, route intraperitoneal. Particulars: in vivo. In kind it is toxicity, organism-based.
Series [23] has as its system Mus musculus. The series is described as follows: Neurotoxicity in albino mouse minimal clonic seizure model assessed as minimal motor impairment at 100 mg/kg, ip after 0.5 hrs by rotorod test. In kind it is toxicity, organism-based. More on the design: dose 100 mg/kg, route intraperitoneal. Particulars: in vivo.
The test system of series [24] is Mus musculus. Briefly: Neurotoxicity in albino mouse minimal clonic seizure model assessed as minimal motor impairment at 100 mg/kg, ip after 4 hrs by rotorod test. In kind it is toxicity, organism-based. More on the design: dose 100 mg/kg, route intraperitoneal. As to conditions: in vivo.
For series [25], the system named is Mus musculus. The series is described as follows: Neurotoxicity in albino mouse minimal clonic seizure model assessed as minimal motor impairment at 100 mg/kg, ip after 2 hrs by rotorod test. Format: toxicity, organism-based. Set-up: dose 100 mg/kg, route intraperitoneal. Particulars: in vivo.
Series [26] has as its system Mus musculus. The series is described as follows: Neurotoxicity in albino mouse minimal clonic seizure model assessed as minimal motor impairment at 100 mg/kg, ip after 1 hr by rotorod test. Format: toxicity, organism-based. More on the design: dose 100 mg/kg, route intraperitoneal. As to conditions: in vivo.

In the case of `COc1ccc([C@H]2C(=O)NC(=O)[C@@H]3CCCN23)cc1`, the Activity entry with Mus musculus [1], in the series on Mus musculus [4], in the series with Mus musculus [5] and in the series on Mus musculus [8] was “Non-toxic” each time. Further, the outcome in the series on Mus musculus [2], with Mus musculus [3], with Rattus norvegicus, in the series with Mus musculus [6], with Mus musculus [7] and in the series on Mus musculus [9] was inactive. For the same molecule, in the series with Mus musculus [10], the result was inactive.

As for `O=C1NC(=O)C(c2ccccc2)(c2ccccc2)N1` [PHENYTOIN], the median effective dose (ED50) in the series with Mus musculus [11] is greater than 60 mg/kg.

With `O=C1NC(=O)[C@@H]2CCCN2[C@H]1c1ccoc1`, the result in the series with Mus musculus [2], in the series with Mus musculus [3], in the series with Rattus norvegicus, with Mus musculus [6] and with Mus musculus [9] was inactive. In addition, the Activity entry in the series with Mus musculus [4] and with Mus musculus [5] was “Non-toxic” in each case.

For the molecule `O=C1NC(=O)[C@@H]2CCCN2[C@H]1c1ccc2ccccc2c1`, the outcome in the series on Mus musculus [2], with Mus musculus [3], in the series on Rattus norvegicus, in the series on Mus musculus [6] and in the series with Mus musculus [9] was inactive. Besides, the Activity entry in the series with Mus musculus [4] and with Mus musculus [5] was “Non-toxic” throughout.

For the molecule `Cc1ccc([C@H]2C(=O)NC(=O)[C@@H]3CCCN23)cc1`, in the series filed under Mus musculus [12], the “Ratio TD50/ED50” value was found to be 4. The Activity entry with Mus musculus [1], with Mus musculus [4], in the series with Mus musculus [5] and in the series with Mus musculus [8] was “Non-toxic” throughout. Further, the outcome with Mus musculus [2], in the series on Mus musculus [3], with Mus musculus [16], in the series with Mus musculus [18], in the series on Rattus norvegicus and with Mus musculus [6] was inactive. The result in the series with Mus musculus [7], in the series with Mus musculus [9] and in the series with Mus musculus [10] was inactive. For the same molecule, the outcome with Mus musculus [13], with Mus musculus [14] and with Mus musculus [19] was Active. Also, the Time in the series with Mus musculus [15] was 0.25 h. In addition, in the series with Mus musculus [11], the ED50 amounted to 41.7 mg/kg. For the same molecule, in series [17], the TD50 was determined as 167 mg/kg.

Take `O=C1NC(=O)[C@@H]2CCCN2[C@H]1c1cccc2ccccc12`: the result in the series with Mus musculus [2], in the series with Mus musculus [3], in the series with Rattus norvegicus, in the series on Mus musculus [6] and with Mus musculus [9] was inactive. Further, the Activity result in the series on Mus musculus [4] and in the series with Mus musculus [5] was “Non-toxic” each time.

For `CCC1(C)CC(=O)NC1=O` (centres undefined) [ETHOSUXIMIDE], the Time in the series on Mus musculus [15] worked out at 0.25 h.

Regarding `O=C1NC(=O)[C@@H]2CCCN2[C@H]1c1cccs1`, the Activity entry is reported as “Toxic” in the series on Mus musculus [1], “Non-toxic” in the series on Mus musculus [4], “Non-toxic” in the series on Mus musculus [5] and “Non-toxic” in the series with Mus musculus [8]. The result in the series with Mus musculus [2], in the series with Mus musculus [3], with Rattus norvegicus and in the series with Mus musculus [6] was inactive. For the same molecule, the result in the series on Mus musculus [9] was Active.

For `O=C1NC(=O)[C@@H]2CCCN2[C@H]1c1ccco1`, the outcome with Mus musculus [2], in the series with Mus musculus [3], in the series with Rattus norvegicus, in the series on Mus musculus [6] and in the series with Mus musculus [9] was inactive. For the same molecule, the Activity entry with Mus musculus [4] is “Non-toxic”; in the series with Mus musculus [5] it was “Toxic”.

Consider `COc1cccc([C@H]2C(=O)NC(=O)[C@@H]3CCCN23)c1`, for which the Activity result in the series with Mus musculus [1], in the series with Mus musculus [4], in the series on Mus musculus [5] and with Mus musculus [8] was “Non-toxic” throughout. The outcome in the series on Mus musculus [2], in the series on Mus musculus [3], in the series on Mus musculus [20], with Rattus norvegicus, in the series on Mus musculus [6] and in the series with Mus musculus [7] was inactive. Besides, in the series on Mus musculus [21], the outcome was inactive. Besides, the result with Mus musculus [9] and with Mus musculus [10] was Active.

Take `CC[C@@H](C(N)=O)N1CCCC1=O`: the Time in the series with Mus musculus [15] worked out at 1 h. Besides, the TD50 in series [17] is greater than 500 mg/kg.

`COc1ccccc1[C@H]1C(=O)NC(=O)[C@@H]2CCCN12`: the Activity entry with Mus musculus [1], in the series with Mus musculus [22], in the series with Mus musculus [23], in the series with Mus musculus [24], in the series on Mus musculus [4] and in the series with Mus musculus [5] was “Non-toxic” each time. The Activity result with Mus musculus [8], in the series with Mus musculus [25] and in the series on Mus musculus [26] was “Non-toxic” in each case. The result with Mus musculus [2], with Mus musculus [3], in the series with Mus musculus [16], with Mus musculus [18], in the series with Rattus norvegicus and in the series on Mus musculus [6] was inactive. Besides, the result in the series on Mus musculus [7], in the series with Mus musculus [9] and with Mus musculus [10] was inactive. Besides, the result in the series on Mus musculus [13], in the series on Mus musculus [14] and in the series with Mus musculus [19] was Active.

For `O=C1NC(=O)[C@@H]2CCCN2[C@H]1c1cc(Cl)cc(Cl)c1`, the Activity entry in the series with Mus musculus [1], in the series on Mus musculus [22], in the series on Mus musculus [23], with Mus musculus [24], in the series with Mus musculus [4] and in the series with Mus musculus [5] was “Non-toxic” in each case. Also, the Activity result in the series with Mus musculus [8], in the series with Mus musculus [25] and with Mus musculus [26] was “Non-toxic” each time. The outcome in the series on Mus musculus [2], with Mus musculus [3], in the series with Mus musculus [20], in the series on Mus musculus [14], in the series on Mus musculus [16] and in the series with Mus musculus [18] was inactive. Further, the result in the series on Rattus norvegicus and in the series with Mus musculus [21] was inactive. Also, the outcome in the series with Mus musculus [13], with Mus musculus [19], with Mus musculus [6], in the series with Mus musculus [7], with Mus musculus [9] and in the series on Mus musculus [10] was Active.
